System: NOMO1
Assay: cell viability relative to DMSO control; higher = less cytotoxic
Settings: 48 h
Outline: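 Viability was expressed as a per-plate percentage of DMSO wells, with cell-free wells as background. Leukemia cells (NOMO1 or SEM at 500 cells/well, P12-Ichikawa at 1000 cells/well) were adapted for at least four passages in each medium and seeded in 1536-well plates (5 μl). Library compounds in DMSO were pin-dosed over an 11-point threefold series from 47 μM to 0.79 nM, and CellTiter-Glo One luminescence was read after 48 h at 37°C.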

[1] = HPLM + 10% dialyzed FBS, 0.000781 µM
[2] = HPLM + 10% dialyzed FBS, 0.00234 µM
[3] = HPLM + 10% dialyzed FBS, 0.00702 µM
[4] = HPLM + 10% dialyzed FBS, 0.0211 µM
[5] = HPLM + 10% dialyzed FBS, 0.0632 µM
[6] = HPLM + 10% dialyzed FBS, 0.19 µM
[7] = HPLM + 10% dialyzed FBS, 0.569 µM
[8] = HPLM + 10% dialyzed FBS, 1.71 µM
[9] = HPLM + 10% dialyzed FBS, 5.12 µM
[10] = HPLM + 10% dialyzed FBS, 15.4 µM
[11] = HPLM + 10% dialyzed FBS, 46.1 µM
[12] = RPMI 5 mM glucose + 10% FBS, 0.000781 µM
[13] = RPMI 5 mM glucose + 10% FBS, 0.00234 µM
[14] = RPMI 5 mM glucose + 10% FBS, 0.00702 µM
[15] = RPMI 5 mM glucose + 10% FBS, 0.0211 µM
[16] = RPMI 5 mM glucose + 10% FBS, 0.0632 µM
[17] = RPMI 5 mM glucose + 10% FBS, 0.19 µM
[18] = RPMI 5 mM glucose + 10% FBS, 0.569 µM
[19] = RPMI 5 mM glucose + 10% FBS, 1.71 µM
[20] = RPMI 5 mM glucose + 10% FBS, 5.12 µM
[21] = RPMI 5 mM glucose + 10% FBS, 15.4 µM
[22] = RPMI 5 mM glucose + 10% FBS, 46.1 µM
[23] = RPMI 5 mM glucose + 10% dialyzed FBS, 0.000781 µM
[24] = RPMI 5 mM glucose + 10% dialyzed FBS, 0.00234 µM
[25] = RPMI 5 mM glucose + 10% dialyzed FBS, 0.00702 µM
[26] = RPMI 5 mM glucose + 10% dialyzed FBS, 0.0211 µM
[27] = RPMI 5 mM glucose + 10% dialyzed FBS, 0.0632 µM
[28] = RPMI 5 mM glucose + 10% dialyzed FBS, 0.19 µM
[29] = RPMI 5 mM glucose + 10% dialyzed FBS, 0.569 µM
[30] = RPMI 5 mM glucose + 10% dialyzed FBS, 1.71 µM
[31] = RPMI 5 mM glucose + 10% dialyzed FBS, 5.12 µM
[32] = RPMI 5 mM glucose + 10% dialyzed FBS, 15.4 µM
[33] = RPMI 5 mM glucose + 10% dialyzed FBS, 46.1 µM

SMILES | cell viability [1] [%] | cell viability [2] [%] | cell viability [3] [%] | cell viability [4] [%] | cell viability [5] [%] | cell viability [6] [%] | cell viability [7] [%] | cell viability [8] [%] | cell viability [9] [%] | cell viability [10] [%] | cell viability [11] [%] | cell viability [12] [%] | cell viability [13] [%] | cell viability [14] [%] | cell viability [15] [%] | cell viability [16] [%] | cell viability [17] [%] | cell viability [18] [%] | cell viability [19] [%] | cell viability [20] [%] | cell viability [21] [%] | cell viability [22] [%] | cell viability [23] [%] | cell viability [24] [%] | cell viability [25] [%] | cell viability [26] [%] | cell viability [27] [%] | cell viability [28] [%] | cell viability [29] [%] | cell viability [30] [%] | cell viability [31] [%] | cell viability [32] [%] | cell viability [33] [%]
O=[N+]([O-])c1cnc(Sc2nnc(O)n2-c2ccc3c(c2)OCCO3)s1 | 84.4 | 73.6 | 101 | 102 | 96.4 | 92.3 | 86.3 | 96.1 | 93.6 | 6.33 | 2.43 | 81.7 | 78.2 | 95.3 | 92 | 85.2 | 86.2 | 82.8 | 92.2 | 84.7 | 2.77 | 2.27 | 78.9 | 96.3 | 92 | 97.1 | 92.2 | 98.9 | 95.3 | 89.9 | 83.5 | 6.45 | 1.89
C#Cc1cccc(Nc2ncnc3cc(OC)c(OCCCCCCC(=O)NO)cc23)c1 | 125 | 119 | 136 | 129 | 111 | 98.2 | 41.5 | 18.4 | 7.85 | 8.02 | 3.32 |  |  |  |  |  |  |  |  |  |  |  |  |  |  |  |  |  |  |  |  |  | 
COC1=CC=C(C=C1)C2CC(=N/N2C3=CC=C(C=C3)[S+](N)([O-])=O)\C4=CC=CC=C4 (stereo unspecified) | 82.7 | 91.2 | 98.8 | 92.9 | 97.4 | 97.1 | 94.9 | 56.1 | 24.4 | 3.71 | 1.86 | 85.9 | 85.1 | 92.5 | 102 | 102 | 98.3 | 94.6 | 89.5 | 35.2 | 4.7 | 2.12 | 82.7 | 93.8 | 85.6 | 103 | 98 | 86.2 | 93.3 | 59 | 43.3 | 4.24 | 1.96
COC[C@H]1OC(=O)C2=COC3=C2[C@@]1(C)\C4=C(\[C@@H]5CC[C@H](O)[C@@]5(C)C[C@H]4OC(C)=O)C3=O | 106 | 112 | 117 | 111 | 132 | 134 | 118 | 113 | 88.6 | 93.1 | 70.6 | 98.9 | 111 | 117 | 107 | 123 | 114 | 117 | 109 | 110 | 102 | 87.6 | 88.2 | 103 | 110 | 106 | 118 | 126 | 115 | 119 | 97.9 | 94 | 83.5
CC(C)(C)c1cc(C(=O)O)c(NC(=O)Nc2ccc3[nH]ncc3c2)s1 | 98.5 | 106 | 101 | 90.7 | 91.1 | 86.6 | 90.5 | 93.9 | 98.8 | 77.2 | 74.3 | 85.9 | 93.1 | 86.6 | 90.2 | 89.9 | 92.3 | 91.5 | 83.9 | 91.2 | 77.3 | 78 | 87.9 | 92.5 | 84 | 89.5 | 90.9 | 83.1 | 83 | 94.9 | 102 | 82.8 | 81.6
O=C1NC(=O)/C(=C/c2cccc(C(F)(F)F)c2)S1 | 114 | 95.1 | 96.8 | 113 | 102 | 98.4 | 108 | 99.1 | 92.8 | 96.9 | 90 | 90.3 | 90.2 | 94.1 | 101 | 106 | 97.8 | 97.8 | 93.2 | 101 | 96.5 | 80.1 | 95.5 | 99.6 | 99 | 104 | 93.1 | 92.9 | 93.2 | 108 | 103 | 87.9 | 92.2
Cc1ncc([N+](=O)[O-])n1CCO | 112 | 122 | 126 | 145 | 130 | 122 | 120 | 137 | 116 | 142 | 120 |  |  |  |  |  |  |  |  |  |  |  | 113 | 113 | 125 | 131 | 137 | 140 | 132 | 142 | 129 | 136 | 130
CC(C)(C)NC(=O)[C@H]1CC[C@H]2[C@@H]3CC[C@H]4NC(=O)\C=C/[C@]4(C)[C@H]3CC[C@]12C | 76.6 | 94.6 | 109 | 108 | 107 | 99.8 | 112 | 84.3 | 27.2 | 26.8 | 27.4 | 101 | 95.7 | 102 | 96.5 | 96.6 | 111 | 109 | 71 | 20.9 | 18.7 | 14.5 | 95.8 | 105 | 100 | 107 | 107 | 108 | 115 | 102 | 26.3 | 25.2 | 18.8
CC(C)(C)NC(=O)[C@@H]1CN(Cc2cccnc2)CCN1C[C@@H](O)C[C@@H](Cc1ccccc1)C(=O)N[C@H]1c2ccccc2C[C@H]1O.O=S(=O)(O)O | 103 | 122 | 111 | 108 | 117 | 105 | 106 | 127 | 122 | 130 | 90.9 | 112 | 112 | 128 | 128 | 120 | 119 | 132 | 136 | 133 | 130 | 107 | 99.5 | 117 | 123 | 116 | 120 | 119 | 125 | 155 | 145 | 136 | 98
Cc1ccc(C(=O)c2cc(O)c(O)c([N+](=O)[O-])c2)cc1 | 91.5 | 104 | 98.2 | 100 | 116 | 101 | 115 | 89.5 | 80.7 | 83.2 | 86.4 | 90.3 | 86.4 | 83.6 | 90.6 | 96 | 83.7 | 90.9 | 81.7 | 94.6 | 87.3 | 92.2 | 100 | 98 | 79.4 | 92.1 | 99.6 | 105 | 108 | 94.3 | 81.8 | 88.4 | 103
CC1(C)CC(O)CC(C)(C)N1[O] | 100 | 125 | 109 | 115 | 115 | 114 | 125 | 121 | 124 | 129 | 120 | 105 | 122 | 128 | 116 | 128 | 128 | 123 | 118 | 135 | 128 | 127 | 100 | 123 | 121 | 123 | 119 | 119 | 123 | 125 | 120 | 123 | 129
C[S+]([O-])c1ccc(-c2nc(-c3ccc(F)cc3)c(-c3ccncc3)[nH]2)cc1 (stereo unspecified) | 78.8 | 101 | 108 | 106 | 106 | 117 | 106 | 66.2 | 35.1 | 3.41 | 2.33 | 80 | 90.4 | 105 | 95 | 113 | 96.3 | 106 | 75.9 | 29.7 | 4.04 | 2.28 | 83.5 | 86.2 | 87.3 | 98.2 | 99.1 | 86.5 | 99.1 | 64.6 | 34.6 | 4.16 | 2.47
CCNc1cc(NC2CCC(O)CC2)nc(Nc2ccc3c(ccn3Cc3ccccc3)c2)n1 (stereo unspecified) | 113 | 121 | 126 | 124 | 147 | 118 | 127 | 139 | 121 | 116 | 120 |  |  |  |  |  |  |  |  |  |  |  | 115 | 123 | 124 | 142 | 141 | 129 | 148 | 121 | 150 | 145 | 106
O=c1[nH]cnc2c1ncn2[C@H]1CC[C@@H](CO)O1 | 91.5 | 91.9 | 118 | 97.9 | 93.2 | 88.8 | 98.6 | 100 | 107 | 71.9 | 55 | 78.5 | 88.5 | 93.2 | 94.7 | 87.7 | 87.7 | 101 | 90.4 | 94.4 | 85.5 | 48.4 | 75.4 | 92.5 | 97.8 | 94.5 | 95.1 | 83.5 | 92.8 | 97.3 | 103 | 89 | 57.1
O=C1NC(O)CCN1[C@@H]1O[C@H](CO)[C@@H](O)[C@H]1O (stereo partly specified) | 145 | 124 | 123 | 142 | 113 | 131 | 143 | 116 | 111 | 92.2 | 21 | 121 | 110 | 104 | 112 | 110 | 110 | 105 | 105 | 109 | 108 | 32.3 | 112 | 108 | 113 | 108 | 110 | 110 | 125 | 126 | 111 | 106 | 34.8

Source: the supplement of paper PMC11451515
